pIC50: −log10 of the molar value. “And” between values parts separate entries of the source, which are not always exact repeats. Identical values can stand only once. Bounds are passed on as bounds.

For the assay, the system named is 695427-040-R-J1-PDC complex spheroid viability. As to the kind of experiment: Anticancer human tumor 695427-040-R-J1-PDC patient-derived colon adenocarcinoma cell line growth inhibition [RAS]. As to conditions: for viability, T/C: stronger effect = lower value. The text has this:
RAS pathway inhibitors in Combinations in Complex Spheroids
A high-throughput screen of multi-cell type tumor spheroids was designed to identify active combinations of RAS pathway inhibitors and targeted small molecules. Complex spheroids include a stromal component modeled by human endothelial cells (HUVEC) and fibroblasts modeled by human mesenchymal stem cells (MSCs). The concentration ranges selected for each drug and investigational agent were based upon clinically achievable concentrations if the clinical Cmax of the agent was known.
Compounds. The drugs and investigational agents: abemaciclib (NSC768073), cobimetinib (NSC768068), divarasib (GDC6063, NSC841802), docetaxel (NSC628503), GDC-1971 (RLY-1971, NSC841576), gemcitabine (NSC613327), inavolisib (NSC800729), ipatasertib (NSC767898), KB-0742 (NSC834161), MRTX-1133 (NSC836407), osimertinib (NSC779217), RMC-4630 (NSC839698), RMC-6236 (NSC851965), RMC-6291 (NSC852671), Ro-3306 (NSC812927), sapanisertib (NSC764658), SN-38 (NSC673596), staurosporine (NSC755774), SY5609 (NSC837396), and tovorafenib (DAY101, NSC766906), were obtained from the National Cancer Institute (NCI) Developmental Therapeutics Program Chemical Repository. The FDA-approved anticancer drug set is available from the NCI Developmental Therapeutics Program. […] The stock solutions were prepared in dimethyl sulfoxide (DMSO, Sigma-Aldrich, St. Louis, MO, cat. D2650) at 800-fold the tested concentration and stored at -70 degrees C prior to their use. All drugs and investigational agents were tested over a range starting from a high concentration at or near the clinical Cmax and decreasing in half-log increments. If the clinical Cmax for an agent had not been determined, the highest concentration tested was 10 microM.
Cell Culture. All cells were maintained in an incubator at 37 degrees C and 5% CO2 with 95% humidity. The PDC lines were cultured according to standard operating procedures established by the NCI PDMR. All PDCs were thawed and cultured in Matrigel-coated flasks prepared with a working solution of 1X Ham's F-12 nutrient mix, without supplementation (Invitrogen, Waltham, MA, cat. 11765054), 100 U/mL penicillin-streptomycin (Invitrogen, cat. 15140122), and 2.5% Matrigel (Corning Inc., Corning, NY, cat. 354248) for the first three passages. The 362531-283-R-J2-PDC and 782815-120-R-J1-PDC lines were cultured in 6C/Colon 1B media, which includes advanced DMEM/F-12 (Thermo Fisher Scientific, cat. 12634028), 10 mM HEPES (Thermo Fisher Scientific, cat. 15630080), 1X GlutaMAX supplement (Thermo Fisher Scientific, cat. 35050061), 0.1 mg/mL primocin (InvivoGen, San Diego, CA, cat. ant-pm-2), 10% defined fetal bovine serum, heat inactivated (HyClone Laboratories Inc., Logan, UT, cat. SH30070.03HI), 50% L-WRN conditioned media (ATCC, cat. CRL-3276), 1.25 mM N-Acetyl-L-cysteine (Sigma-Aldrich, cat. A9165), 10 mM nicotinamide (Sigma-Aldrich, cat. N0636), 1X B-27 supplement (Thermo Fisher Scientific, cat. 17504044), 1X N-2 supplement (Thermo Fisher Scientific, cat. 17502048), 50 ng/mL human EGF (Thermo Fisher Scientific, cat. PHG0311), and 10 microM Y-27632 dihydrochloride (Tocris Bioscience, cat. 1254). The K12877-001-R-J1-PDC line was cultured in 6I media, which includes all 6C/Colon 1B media plus 10 ng/mL human FGF-10 (PeproTech, cat. 100-26), 1 ng/mL human FGF-2 (PeproTech, cat. 100-18B), 1 µM prostaglandin E2 (Tocris Bioscience, cat. 2296), […] hydrocortisone (Sigma-Aldrich, cat. H4001), and […] bovine insulin (Sigma-Aldrich, cat. I6634). The K86415-001-R-J1-PDC line was cultured in 6D media, which includes all 6C/Colon 1B media components minus the L-WRN conditioned media. The 485176-168-R4-J1-PDC was cultured in PANC media, which includes all 6C/Colon 1B media plus 100 ng/mL human FGF-10 (PeproTech, cat. 100-26), 500 nM SB-431542 (Selleckchem, cat. S1067), and 10 nM gastrin (Tocris Bioscience, cat. 3006). […]

Setting [1] is: compound alone, run of 06/10/2024.
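Note: viability read after seven days of drug exposure.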

What is called viability, T/C is the ratio of treated to control. By IC50 is commonly meant the concentration that inhibits the measured activity by half. As for `C#Cc1c(F)ccc2cc(O)cc(-c3ncc4c(N5CC6CCC(C5)N6)nc(OCC56CCCN5CC(F)C6)nc4c3F)c12` (configuration not stated), the viability, T/C (compound 0.0316 µM) is 99.3% [middle of 8 runs]; the viability, T/C (compound 0.1 µM) is 95.3% [middle of 8 runs]; the viability, T/C (compound 0.316 µM) was 89.5% [middle of 8 runs]; the viability, T/C (compound 1 µM) is 73.6% [middle of 8 runs]; the viability, T/C (compound 3.16 µM) was 62.1% [middle of 8 runs]; the viability, T/C (compound 10 µM) was 42.7% [middle of 8 runs]. Also, the IC50 under setting [1] is 6.3 µM [middle of 8 runs].
As usually defined, the pIC50 is the negative decadic logarithm of the IC50, by convention in mol/L. `C=CC(=O)N1CCN(c2nc(OCC3CCCN3C)nc3c(F)c(-c4nc(N)cc(C)c4C(F)(F)F)c(Cl)cc23)C(C)C1` (configuration not stated): the viability, T/C by setting is: (compound 0.00316 µM) 97.3% [middle of 12 runs]; (compound 0.0316 µM) 100% [middle of 12 runs]; (compound 0.1 µM) 102% [middle of 12 runs]. Further, the pIC50 under setting [1] was below 6.00 and the pIC50 (curve of compound) was below 6.00.
For `C=CC(=O)Nc1cc(Nc2nccc(-c3cn(C)c4ccccc34)n2)c(OC)cc1N(C)CCN(C)C`, the viability, T/C was 96.4% [middle of 4 runs] (compound 0.00316 µM); 92% [middle of 4 runs] (compound 0.01 µM); 83.7% [middle of 4 runs] (compound 0.0316 µM); 79.4% [middle of 4 runs] (compound 0.1 µM); 63.1% [middle of 4 runs] (compound 0.316 µM); 40.1% [middle of 4 runs] (compound 1 µM). Moreover, the IC50 (curve of compound) is 597 nM [middle of 4 runs].
Take `CC(C)NCC(C(=O)N1CCN(c2ncnc3c2C(C)CC3O)CC1)c1ccc(Cl)cc1` (configuration not stated): the viability, T/C by setting is: (compound 0.0316 µM) 102% [middle of 4 runs]; (compound 0.316 µM) 96.3% [middle of 4 runs]; (compound 1 µM) 88.8% [middle of 4 runs]. The negative logarithm of the IC50 (pIC50) (curve of compound) is < 5.00 and 5.00.
Take `CC(C)n1nc(-c2ccc3oc(N)nc3c2)c2c(N)ncnc21`: the viability, T/C was 101% [middle of 4 runs] (compound 0.000316 µM); 99.3% [middle of 4 runs] (compound 0.001 µM); 91.7% [middle of 4 runs] (compound 0.00316 µM); 81.6% [middle of 4 runs] (compound 0.01 µM); 73.5% [middle of 4 runs] (compound 0.0316 µM); 61.9% [middle of 4 runs] (compound 0.1 µM). In addition, the pIC50 (curve of compound) was < 7.00 and 7.22.
For the compound `CC(Nc1ccc2c(c1)OCCn1cc(N3C(=O)OCC3C(F)F)nc1-2)C(N)=O` (configuration not stated), the viability, T/C is 89.9% [middle of 4 runs] (compound 0.0316 µM), 72.5% [middle of 4 runs] (compound 0.1 µM), 73.7% [middle of 4 runs] (compound 0.316 µM) and 41.9% [middle of 4 runs] (compound 10 µM).
With `CC1(C)CCC(Nc2ncc(C(F)(F)F)c(-c3c[nH]c4c(P(C)(C)=O)c(C#N)ccc34)n2)CN1` (configuration not stated), the viability, T/C by setting is: (compound 0.000949 µM) 95.8% [middle of 4 runs]; (compound 0.003 µM) 89.1% [middle of 4 runs]; (compound 0.00949 µM) 92.5% and 92.7% and 87.3% (2×); (compound 0.03 µM) 87.3% [middle of 4 runs]; (compound 0.0949 µM) 87.8% [middle of 4 runs]; (compound 0.3 µM) 76.5% [middle of 4 runs]. Further, the pIC50 (curve of compound) was below 6.52.
In the case of `CCN1CCN(Cc2ccc(Nc3ncc(F)c(-c4cc(F)c5nc(C)n(C(C)C)c5c4)n3)nc2)CC1`, the viability, T/C reads like this: (compound 0.00316 µM) 102% [middle of 4 runs]; (compound 0.01 µM) 84.3% [middle of 4 runs]; (compound 0.0316 µM) 92.2% [middle of 4 runs]; (compound 0.1 µM) 102% [middle of 4 runs]; (compound 0.316 µM) 98.7% [middle of 4 runs]. Besides, the pIC50 (curve of compound) is below 6.00.
As to `CCc1c2c(nc3ccc(O)cc13)-c1cc3c(c(=O)n1C2)COC(=O)[C@]3(O)CC`, the viability, T/C reads like this: (compound 0.000949 µM) 91.9% [middle of 4 runs]; (compound 0.003 µM) 96.8% [middle of 4 runs]; (compound 0.00949 µM) 86.8% [middle of 4 runs]; (compound 0.03 µM) 73.4% [middle of 4 runs]; (compound 0.0949 µM) 52.8% [middle of 4 runs]; (compound 0.3 µM) 34.5% [middle of 4 runs]. Also, the IC50 (curve of compound) was 114 nM [middle of 4 runs].
`CCn1c(-c2cc(N3CCN(C)CC3)cnc2C(C)OC)c2c3cc(ccc31)-c1csc(n1)CC(NC(=O)C1CC1C)C(=O)N1CCCC(N1)C(=O)OCC(C)(C)C2` (configuration not stated): the viability, T/C runs as follows: (compound 0.003 µM) 92.1% [middle of 8 runs]; (compound 0.00949 µM) 78.3% [middle of 8 runs]; (compound 0.03 µM) 60.2% [middle of 8 runs]; (compound 0.0949 µM) 51.3% [middle of 8 runs]; (compound 0.3 µM) 43% [middle of 8 runs].
Consider `CCn1c(-c2cccnc2C(C)OC)c2c3cc(ccc31)N1CCOC(CC(NC(=O)C(C(C)C)N(C)C(=O)C3(F)CCN(C(=O)C#CC(C)(C)N(C)C)CC3)C(=O)N3CCCC(N3)C(=O)OCC(C)(C)C2)C1` (configuration not stated), for which the viability, T/C is 94% [middle of 8 runs] (compound 0.000949 µM), 95.8% [middle of 8 runs] (compound 0.03 µM) and 102% [middle of 8 runs] (compound 0.0949 µM). Further, the pIC50 (compound alone, run of 05/20/2024) was below 6.52.
`C[C@@H](NC(=O)c1ncnc(N)c1Cl)c1ncc(C(=O)Nc2cc(C(F)(F)F)c(Cl)cn2)s1`: the viability, T/C is, setting by setting: (compound 0.0316 µM) 105% [middle of 4 runs]; (compound 0.1 µM) 108% [middle of 4 runs]; (compound 0.316 µM) 115% and 99.1% and 103% (2×); (compound 1 µM) 113% [middle of 4 runs]; (compound 3.16 µM) 99.6% [middle of 4 runs]; (compound 10 µM) 73.2% (2×) and 69.3% and 73.6%. In addition, the negative logarithm of the IC50 (pIC50) (curve of compound) is below 5.00.
With `Nc1ccn(C2OC(CO)C(O)C2(F)F)c(=O)n1` (configuration not stated), the viability, T/C by setting is: (compound 0.00316 µM) 92.8% [middle of 4 runs]; (compound 0.0316 µM) 78.1% [middle of 4 runs]; (compound 0.1 µM) 78.2% [middle of 4 runs]; (compound 0.316 µM) 72% [middle of 4 runs]; (compound 1 µM) 65% [middle of 4 runs]. Also, the pIC50 (curve of compound) is below 6.00.
`O=C(c1ccc(F)c(F)c1Nc1ccc(I)cc1F)N1CC(O)([C@@H]2CCCCN2)C1`: the viability, T/C reads like this: (compound 0.00316 µM) 96.2% [middle of 4 runs]; (compound 0.0316 µM) 63.3% [middle of 4 runs]; (compound 0.1 µM) 50.1% [middle of 4 runs]; (compound 0.316 µM) 23.3% [middle of 4 runs]; (compound 1 µM) 6.95% [middle of 4 runs]. The IC50 (curve of compound) was 77.1 nM [middle of 4 runs].
